Data on eleven compounds can be found in patent publication US20060223841A1 (priority 2003, published 2006).

The nature of data set [1]: Stability under grinding by hand in mortar and pestle (XRD). The settings on record: grinding by hand in mortar and pestle for one minute.
The nature of data set [2]: Stability of ratio of the mixture of desloratadine polymorphic forms on storage (XRPD). Type of data set: physicochemical. An excerpt:
Copper radiation of 1.5418 Å was used.
In all cases samples were packed in polyethylene and store above conditions.

Data set [3] in a line: Solubility of desloratadine. The format is physicochemical.
[4] abbreviates: 25° C., 60% RH, 1 month (4 weeks).
[5] abbreviates: 25° C., 60% RH, 2 months (8 weeks).
Where [6] appears, read: 25° C., 60% RH, 3 months (12 weeks).
Where [7] appears, read: 40° C., 75% RH, 1 month (4 weeks).
[8] abbreviates: 40° C., 75% RH, 2 months (8 weeks).
Setting [9] is: 25° C., 60% RH, 6 months (24 weeks).
Where [10] appears, read: 40° C., 75% RH, 3 months (12 weeks).
Where [11] appears, read: 40° C., 75% RH, 6 months (24 weeks).

SMILES strings stand for the structures.

Consider `Clc1ccc2c(c1)CCc1cccnc1C2=C1CCNCC1` [Form II, desloratadine, reference compound], for which, in data set [1], the “change in the XRD pattern after grinding” value was “stable”.

In the case of `Clc1ccc2c(c1)CCc1cccnc1C2=C1CCNCC1` [Example 1 of Stability Tests, desloratadine], the “Form 1 (%)” value in data set [2] (25° C., 60% RH, 0 week) came out at 57%; in data set [2] (setting [4]), 55%; in data set [2] (25° C., 60% RH, 1 week) it was 59%; in data set [2] (setting [5]) it was 63%; in data set [2] (25° C., 60% RH, 2 weeks), 53%; in data set [2] (setting [6]), 52%. For the same compound, the “Form 1 (%)” value in data set [2] (40° C., 75% RH, 0 week) came to 57%; in data set [2] (setting [7]) it was 50%; in data set [2] (40° C., 75% RH, 1 week) it was 46%; in data set [2] (setting [8]), 39%; in data set [2] (40° C., 75% RH, 2 weeks) it was 43%. The “Form 2 (%)” value in data set [2] (25° C., 60% RH, 0 week) is recorded as 43%; in data set [2] (setting [4]), 45%; in data set [2] (25° C., 60% RH, 1 week), 41%; in data set [2] (setting [5]), 37%; in data set [2] (25° C., 60% RH, 2 weeks), 47%; in data set [2] (setting [6]), 48%. In addition, the “Form 2 (%)” value in data set [2] (40° C., 75% RH, 0 week) is on record as 43%; in data set [2] (setting [7]), 50%; in data set [2] (40° C., 75% RH, 1 week), 54%; in data set [2] (setting [8]), 61%; in data set [2] (40° C., 75% RH, 2 weeks), 57%.

As for `Clc1ccc2c(c1)CCc1cccnc1C2=C1CCNCC1` [25:75, desloratadine], the “change in the XRD pattern after grinding” value in data set [1] was “do not show any substantial change”.

As for `Clc1ccc2c(c1)CCc1cccnc1C2=C1CCNCC1` [50:50, desloratadine], the “change in the XRD pattern after grinding” value in data set [1] was “do not show any substantial change”.

For `Clc1ccc2c(c1)CCc1cccnc1C2=C1CCNCC1` [Example 2 of Stability Tests, desloratadine], the “Form 1 (%)” value was 62% in data set [2] (25° C., 60% RH, 0 week); 66% in data set [2] (setting [4]); 65% in data set [2] (25° C., 60% RH, 1 week); 67% in data set [2] (setting [5]); 61% in data set [2] (25° C., 60% RH, 2 weeks); 66% in data set [2] (setting [6]). Besides, the “Form 1 (%)” value in data set [2] (40° C., 75% RH, 0 week) is 62%; in data set [2] (setting [7]) it was 65%; in data set [2] (40° C., 75% RH, 1 week) it was 63%; in data set [2] (setting [8]), 65%; in data set [2] (40° C., 75% RH, 2 weeks) it was 64%. The “Form 2 (%)” value turned out to be 38% in data set [2] (25° C., 60% RH, 0 week); 34% in data set [2] (setting [4]); 35% in data set [2] (25° C., 60% RH, 1 week); 33% in data set [2] (setting [5]); 39% in data set [2] (25° C., 60% RH, 2 weeks); 34% in data set [2] (setting [6]). Further, the “Form 2 (%)” value in data set [2] (40° C., 75% RH, 0 week) was 38%; in data set [2] (setting [7]), 35%; in data set [2] (40° C., 75% RH, 1 week) it was 37%; in data set [2] (setting [8]), 35%; in data set [2] (40° C., 75% RH, 2 weeks), 36%.

As to `Clc1ccc2c(c1)CCc1cccnc1C2=C1CCNCC1` [desloratadine, 8-chloro-6,11-dihydro-11-(4-piperidylidene)-5H-benzo[5,6] cyclohepta[1,2-b]pyridine], the solubility entry in data set [3] is “very low”.

Take `Clc1ccc2c(c1)CCc1cccnc1C2=C1CCNCC1` [84:16, desloratadine]: the “change in the XRD pattern after grinding” value in data set [1] is “do not show any substantial change”.

`Clc1ccc2c(c1)CCc1cccnc1C2=C1CCNCC1` [75:25, desloratadine]: the “change in the XRD pattern after grinding” value in data set [1] was “do not show any substantial change”.

As for `Clc1ccc2c(c1)CCc1cccnc1C2=C1CCNCC1` [Example 3 of Stability Tests, desloratadine], the “Form 1 (%)” value in data set [2] (25° C., 60% RH, 0 week) is given as 74%; in data set [2] (setting [4]) it was 79%; in data set [2] (25° C., 60% RH, 1 week), 79%; in data set [2] (setting [5]), 75%; in data set [2] (25° C., 60% RH, 2 weeks), 74%; in data set [2] (setting [6]), 74%. For the same compound, the “Form 1 (%)” value came to 77% in data set [2] (setting [9]); 74% in data set [2] (40° C., 75% RH, 0 week); 78% in data set [2] (setting [7]); 77% in data set [2] (40° C., 75% RH, 1 week); 78% in data set [2] (setting [8]); 81% in data set [2] (40° C., 75% RH, 2 weeks). Besides, the “Form 1 (%)” value in data set [2] (setting [10]) and in data set [2] (setting [11]) was 75% in each case. In addition, the “Form 2 (%)” value in data set [2] (25° C., 60% RH, 0 week) turned out to be 26%; in data set [2] (setting [4]) it was 21%; in data set [2] (25° C., 60% RH, 1 week), 21%; in data set [2] (setting [5]) it was 25%; in data set [2] (25° C., 60% RH, 2 weeks), 26%; in data set [2] (setting [6]), 26%. The “Form 2 (%)” value in data set [2] (setting [9]) was determined as 23%; in data set [2] (40° C., 75% RH, 0 week) it was 26%; in data set [2] (setting [7]), 22%; in data set [2] (40° C., 75% RH, 1 week), 23%; in data set [2] (setting [8]), 22%; in data set [2] (40° C., 75% RH, 2 weeks) it was 19%. The “Form 2 (%)” value in data set [2] (setting [10]) and in data set [2] (setting [11]) was 25% each time.

As to `Clc1ccc2c(c1)CCc1cccnc1C2=C1CCNCC1` [Form I, desloratadine, reference compound], the “change in the XRD pattern after grinding” value in data set [1] was “stable”.

Turning to `Clc1ccc2c(c1)CCc1cccnc1C2=C1CCNCC1` [Example 4 of Stability Tests, desloratadine], the “Form 1 (%)” value was 76% in data set [2] (25° C., 60% RH, 0 week); 82% in data set [2] (setting [4]); 87% in data set [2] (25° C., 60% RH, 1 week); 86% in data set [2] (setting [5]); 80% in data set [2] (25° C., 60% RH, 2 weeks); 81% in data set [2] (setting [6]). Besides, the “Form 1 (%)” value came out at 84% in data set [2] (setting [9]); 76% in data set [2] (40° C., 75% RH, 0 week); 88% in data set [2] (setting [7]); 76% in data set [2] (40° C., 75% RH, 1 week); 85% in data set [2] (setting [8]); 82% in data set [2] (40° C., 75% RH, 2 weeks). Besides, the “Form 1 (%)” value in data set [2] (setting [10]) and in data set [2] (setting [11]) was 82% in each case. Moreover, the “Form 2 (%)” value in data set [2] (25° C., 60% RH, 0 week) is given as 24%; in data set [2] (setting [4]), 18%; in data set [2] (25° C., 60% RH, 1 week) it was 13%; in data set [2] (setting [5]), 14%; in data set [2] (25° C., 60% RH, 2 weeks), 20%; in data set [2] (setting [6]), 19%. The “Form 2 (%)” value in data set [2] (setting [9]) is 16%; in data set [2] (40° C., 75% RH, 0 week), 24%; in data set [2] (setting [7]), 12%; in data set [2] (40° C., 75% RH, 1 week), 24%; in data set [2] (setting [8]), 15%; in data set [2] (40° C., 75% RH, 2 weeks), 18%. For the same compound, the “Form 2 (%)” value in data set [2] (setting [10]) and in data set [2] (setting [11]) was 18% in each case.
